Measurements taken from patent publication US11297837B2, “Pesticidally activi mixtures comprising anthranilamide compounds” (priority 2016, dated 2022).

Columns and labels:
Assay type in all cases: in vivo
[1] = system: yellow fever mosquito (Aedes aegypti); experiment: Yellow fever mosquito (Aedes aegypti) control, larvae in tap water in 96-well microtiter plates; conditions: larval mortality visually assessed after 2 days
Procedure: For evaluating control of yellow fever mosquito (Aedes aegypti) the test unit consisted of 96-well-microtiter plates containing 200 μl of tap water per well and 5-15 freshly hatched A. aegypti larvae.
The compounds or mixtures were formulated using a solution containing 75% water and 25% DMSO. Different concentrations of formulated compounds or mixtures were sprayed onto the insect diet at 2.5 μl, using a custom built micro atomizer, at two replications.
(§1) For experimental mixtures in these tests identical volumes of both mixing partners at the desired concentrations respectively, were mixed together.
After application, microtiter plates were incubated at 28±1° C., 80±5% RH for 2 days. Larval mortality was then visually assessed.

[2] = system: boll weevil (Anthonomus grandis); experiment: Boll weevil (Anthonomus grandis) control, insect diet with eggs in 24-well microtiter plates; conditions: egg and larval mortality visually assessed after 5 days
Procedure: For evaluating control of boll weevil the test unit consisted of 24-well-microtiter plates containing an insect diet and 20-30 A. grandis eggs.
The compounds or mixtures were formulated using a solution containing 75% water and 25% DMSO. Different concentrations of formulated compounds or mixtures were sprayed onto the insect diet at 20 μl, using a custom built micro atomizer, at two replications.
as §1
After application, microtiter plates were incubated at 23+1° C., 50+5% RH for 5 days. Egg and larval mortality was then visually assessed.

[3] = system: green peach aphid (Myzus persicae); experiment: Green peach aphid (Myzus persicae) control through systemic means, artificial diet in 96-well microtiter plates; conditions: 2 ppm; aphid mortality and fecundity visually assessed after 3 days
Excerpt: For evaluating control of green peach aphid (Myzus persicae) through systemic means the test unit consisted of 96-well-microtiter plates containing liquid artificial diet under an artificial membrane.
Different concentrations of formulated compounds or mixtures were pipetted into the aphid diet, using a custom built pipetter, at two replications.
as §1
After application, 5-8 adult aphids were placed on the artificial membrane inside the microtiter plate wells. […] Aphid mortality and fecundity was then visually assessed.

CC(NC(=O)c1cc(Cl)cc(Br)c1NC(=O)c1cc(Br)nn1-c1ncccc1Cl)C1CC1 (centres unmarked) [I.2, cyclaniliprole, reference compound]
Average Control % ([1]; 2 ppm): 0%
Average Control % ([2]; 0.08 ppm): 0%

Cn1nc(C(F)(F)C(F)(F)F)c(C(F)(F)F)c1C(=O)Nc1ccc(Cl)c(C(=O)NCc2ccccc2)c1 [II-1, N-[4-Chloro-3-[[(phenylmethyl)amino]carbonyl]phenyl]-1-methyl-3-(1,1,2,2,2-pentafluoroethyl)-4-(trifluoromethyl)-1H-pyrazole-5-carboxamide]
Average Control % ([1]; 20 ppm): 50%
Average Control % ([2]; 20 ppm): 0%

CCN1OC[C@@H](NC(=O)c2ccc(C3=NOC(c4cc(Cl)cc(Cl)c4)(C(F)(F)F)C3)cc2C)C1=O (stereo partly drawn) [II-4.1, 4-[5-(3,5-dichlorophenyl)-5-(trifluoromethyl)-4H-isoxazol-3-yl]-N-[(4R)-2-ethyl-3-oxo-isoxazolidin-4-yl]-2-methyl-benzamide]
Average Control % [3]: 0%
